Measurements: paper PMC10077444, “Evaluation of In Vivo Biological Activity Profiles of Isoindole-1,3-dione Derivatives: Cytotoxicity, Toxicology, and Histopathology Studies” (ACS Omega, 2023)
Values joined by “and” are separate entries in the source; they are usually repeats but may differ in a detail not shown here. Equal entries are not always repeated.

Experiments:
[1] = test system: A549-Luc lung cancer cells; test: In vivo xenograft tumor model, tumor size by IVIS imaging; design: species or system nude mice; conditions: for tumor size: individual nude mice, Tnd = tumor not detected, Ex = dead; for tumor outcome after treatment: A549-Luc xenograft nude mice, IVIS imaging; for tumor size initially: before treatment, individual nude mice (1)-(5)
Description: Luc cell line (A549-Luc cell), which has luciferase activity, was used to determine the cancer treatment potential of compounds 3 and 4 for in vivo experiments. Cells were cultured in DMEM Ham’s F12 [10% FBS, 1% L-glutamine, 1% gentamicin, and 1 mM 4-(2-hydroxyethyl)-1-piperazineethanesulfonic acid] broth in a CO2 incubator set at 37 °C. Sufficient stocks were prepared by passaging the cells twice a week, and cells that actively proliferated in the logarithmic phase were used in the tests.
Approval for monitoring the cancer treatment potential of the synthesized structures in vivo conditions was taken by the Animal Ethics Committee of Ege University on 24.01.2018 with the number 2018-015. Male atypical nude mice, 6–8 weeks old, were used for in vivo xenograft tumor models. […] For the purpose of xenograft administration, nude mice were injected subcutaneously with 100 μL of 5 × 10^6 A549-Luc cell suspension. The presence of cancer after cell administration to nude mice was followed by imaging with an IVIS device. In order to monitor tumor formation and tumor volume detection, luciferin [Biovision Inc., USA; 12 mg/mL in phosphate-buffered saline (PBS)] was injected intraperitoneally followed by visualization with IVIS 5 min later. When tumor volume reaches about 2000 mm^3, cancerous nudes are divided into three groups: the control group, 3 group, and 4 group. Grouping was made as 3–5 animals in each group. The following procedures were prepared according to the groups, and then they were implemented. In addition, the weights of nude mice were regularly checked and recorded.
Compound 3(Y) group: Compound 3(Y) was prepared in DMSO at a concentration of 200 μM, and 20 μL was administered via the tail vein in three doses a week.
Compound 4(X) group: Compound 4(X) was prepared in DMSO at a concentration of 200 μM, and 20 μL was given three doses a week through the tail vein.
Male atypical nude mice aged 6–8 weeks are commonly used in in vivo xenograft tumor models. A549-luc lung cancer cells were injected into nude mice in all three groups, and tumor growth was induced with a xenograft model. For xenograft administration, 100 μL of 5 × 10^6 A549-luc cell suspension was injected subcutaneously into nude mice. After cell application to nude mice, it was determined whether there was cancer or not by imaging with the IVIS device. After the cancer groups were formed, the treatment phase was started. Compound 4(X) substance, compound 3(Y), and cancer control groups were formed, five in each group. Each prepared sample was given to the animals by tail vein administration, three doses (as described in Section 2.3) per week, and the IVIS images taken at 5 min after luciferin (200 μL of 12 mg/mL stock administered […]) at certain time intervals were evaluated. Although no tumor was detected on the 15th day after cell implantation, the treatment was continued for two more weeks and whether the tumor recurred or not was determined by IVIS imaging.

[2] = 28 day subacute toxicity study, weight change
CD1 mice = conditions: in vivo
[3] = 7 days, 200 μM, 20 μL tail vein, three doses a week

## CC(=O)O[C@H]1C=C[C@H](OC(C)=O)[C@H]2C(=O)N(Cc3ccccc3)C(=O)[C@H]21 [compound 3]
[1]; [3]
  tumor size: Tnd
[1]; 15 days
  tumor size: Tnd
[1]; 45 days
  tumor size: Tnd
[1]
  tumor outcome after treatment: completely destroyed
  tumor size initially: 404.93 mm^3 and 301.26 mm^3 and 424.93 mm^3 and 731.33 mm^3 and 600.97 mm^3
[2]; 1st dose (200 μM) female, 7d
  Weight, group average: 26.732 G
[2]; 1st dose (200 μM) female, 14d
  Weight, group average: 27.624 G
[2]; 1st dose (200 μM) female, 21d
  Weight, group average: 26.9 G
[2]; 1st dose (200 μM) female, 28d
  Weight, group average: 26.61 G
[2]; 1st dose (200 μM) female, initial
  Weight, group average: 26.516 G
[2]; 1st dose (200 μM) male, 7d
  Weight, group average: 34.102 G
[2]; 1st dose (200 μM) male, 14d
  Weight, group average: 35.088 G
[2]; 1st dose (200 μM) male, 21d
  Weight, group average: 34.89 G
[2]; 1st dose (200 μM) male, 28d
  Weight, group average: 35.932 G
[2]; 1st dose (200 μM) male, initial
  Weight, group average: 33.35 G
[2]; 2nd dose (100 μM) female, 7d
  Weight, group average: 27.582 G
[2]; 2nd dose (100 μM) female, 14d
  Weight, group average: 27.204 G
[2]; 2nd dose (100 μM) female, 21d
  Weight, group average: 27.848 G
[2]; 2nd dose (100 μM) female, 28d
  Weight, group average: 28.604 G
[2]; 2nd dose (100 μM) female, initial
  Weight, group average: 27.71 G
[2]; 2nd dose (100 μM) male, 7d
  Weight, group average: 32.196 G
[2]; 2nd dose (100 μM) male, 14d
  Weight, group average: 33.33 G
[2]; 2nd dose (100 μM) male, 21d
  Weight, group average: 33.42 G
[2]; 2nd dose (100 μM) male, 28d
  Weight, group average: 34.952 G
[2]; 2nd dose (100 μM) male, initial
  Weight, group average: 32.388 G
[2]; 3rd dose (50 μM) female, 7d
  Weight, group average: 23.104 G
[2]; 3rd dose (50 μM) female, 14d
  Weight, group average: 23.97 G
[2]; 3rd dose (50 μM) female, 21d
  Weight, group average: 24.27 G
[2]; 3rd dose (50 μM) female, 28d
  Weight, group average: 25.092 G
[2]; 3rd dose (50 μM) female, initial
  Weight, group average: 24.338 G
[2]; 3rd dose (50 μM) male, 7d
  Weight, group average: 35.528 G
[2]; 3rd dose (50 μM) male, 14d
  Weight, group average: 36.106 G
[2]; 3rd dose (50 μM) male, 21d
  Weight, group average: 36.43 G
[2]; 3rd dose (50 μM) male, 28d
  Weight, group average: 38.348 G
[2]; 3rd dose (50 μM) male, initial
  Weight, group average: 35.076 G
CD1 mice; both, CD1, mouse, 28 day
  cardiac muscle: increase in the connective tissue between the muscle fibers: higher level compared to the 4 groups
CD1 mice; mouse
  cardiac muscle: discus intercalaris: moderate/high level of erasure
  kidney: severity of histopathological findings, compounds compared: more severe
  liver: severity of histopathological findings, compounds compared: more severe

## CC(=O)O[C@@H]1[C@@H]2C(=O)N(Cc3ccccc3)C(=O)[C@@H]2C=C[C@H]1Cl [compound 4]
[1]; [3]
  tumor size: Tnd ^a
[1]; 15 days
  tumor size: Tnd ^a and Ex
[1]; 45 days
  tumor size: Tnd ^a and Ex
[1]
  tumor outcome after treatment: completely destroyed
  tumor size initially: 570.91 mm^3 and 403.71 mm^3 and 482.52 mm^3 and 1518.02 mm^3 and 1124.09 mm^3
